Each structure is given as a SMILES string.

This assay concerns HBV viral production from HepAD38 cells. Nature of the assay: Activity of test compounds on viral production from HepAD38 cells (viral load by qPCR of HBV core sequence in supernatant). It counts as cell-based. To be noted: Hepatitis B virus, 120 h, 5 days incubation, HBV DNA in supernatant by qPCR, top concentration 10 μM, read-out: Viral Load EC50 Activity range. Here is the method:
Assay Measuring Activity of Test Compounds on Viral Production from HepAD38 Cells
HepAD38 cells grown in a T-150 flask (Corning, cat #: 430825) with Growth Medium (DMEM/F12 (1:1) (Hyclone, cat #: SH30023.02), 1×Pen/Strep (Invitrogen, cat #: 15140-122), 10% FBS (Tissue Culture Biologics, cat #: 101), 250 μg/mL G418 (Alfa Aesar, cat #: J62671), 1 μg/mL Tetracycline (Teknova, cat #: T3320)) were detached with 0.25% trypsin-EDTA (Invitrogen, cat #: 25200-056). Tetracycline-free treatment medium (15 mL DMEM/F12 (1:1) 1× Pen/step, with 2% FBS, Tet-system approved (Clontech, cat #: 631106) were then added to mix, transferred into a 50 ml conical tube (Falcon, cat #: 21008-918) and spun at 1300 rpm for 5 min. Pelleted cells were then re-suspended/washed with 50 mL of 1×DPBS (Invitrogen, cat #: 14190-136) 2 times and 50 mL treatment medium twice. HepAD38 cells were then re-suspended with 10 mL of treatment medium, syringed and counted. Wells of 96-well clear bottom TC plate (Corning, cat #: 3904) were seeded at 50,000 cells/well in 180 μL of treatment medium, and 20 μL of either 10% DMSO (Sigma, cat #: D4540) as controls or a 10× solution of test compounds in 10% DMSO in treatment media was added for a final compound concentration starting at 10 μM, and plates were incubated in 5% CO2 incubator at 37° C. for 5 days.
Subsequently viral load production was assayed by quantitative PCR (qPCR) of the HBV core sequence. PCR reaction mixture containing forward primers HBV-f 5′-CTGTGCCTTGGGTGGCTTT-3′, which is SEQ ID NO 1, (IDT DNA), Reverse primers HBV-r 5′-[…]-3′, which is SEQ ID NO 2 (IDT DNA), Fluorescent TaqMan™ Probes HBV-probe 5′-FAM/AGCTCCAAA/ZEN/[…]/3IABkFQ-3′ (IDT DNA), which is SEQ ID NO 3, 10 μL/well of PerfeCTa® qPCR ToughMix® (Quanta Biosciences, Cat #: 95114-05K), and 6 µL/well of DEPC water (Alfa Aesar, cat #: J62087) was prepared. Four μL of supernatant was added to 16 μL of the reaction mixture in a qPCR plate (Applied Biosytems, Cat #: 4309849), sealed with a film (Applied Biosystems, Cat #: 4311971), centrifuged for a few seconds, and subsequently run on an Applied Biosystems VIIA7. The PCR mixture was incubated at 45° C. for 5 min, then 95° C. for 10 min, followed by 40 cycles of 10 seconds at 95° C. and 20 seconds at 60° C. Viral load was quantified against known HBV DNA standards by using ViiA™ 7 Software. Viral load in the supernatant from wells with treated cells were compared against viral load in supernatant from DMSO control wells (≥3 per plate). Cell viability assay was performed with CellTiter-Glo Luminescent Cell Viability Assay (Promega, cat #: G7573) with modification. Mixed appropriate amount of CellTiter-Glo (CTG) 1×DPBS in a 1:1 ratio, added 100 uL of the mixture to each well followed completely removal of all supernatant in each well without touching cell surface. Incubated the plate at room temperature for 10 min on an orbital shaker, and then read the plate with a plate reader (TECAN M1000 or Envision). EC50 or CC50 values were calculated through curve-fitting of the four-parameter nonlinear-logistic-regression model (GraphPad Prism or Dotmatics). CC50 values were all >10 μM.
(In general: Real-time PCR tracks product formation cycle by cycle.)
In the case of `CN1[C@@H](C(=O)Nc2ccc(F)c(Cl)c2)C[C@H](c2ncc(-c3cn(C)cn3)s2)NS1(=O)=O` [HBV-CSU-276-Trans-ISO-I, (3R,5R)-N-(3-chloro-4-fluorophenyl)-2-methyl-5-(5-(1-methyl-1H-imidazol-4-yl)thiazol-2-yl)-1,2,6-thiadiazinane-3-carboxamide 1,1-dioxide], the EC50 (usually the concentration needed to bring the measured effect to its halfway point) was less than 1000 nM. For `CN1C(C(=O)Nc2ccc(F)c(Cl)c2)CC(c2ccc(F)cc2)NS1(=O)=O` (stereo not drawn) [HBV-CSU-112 (Cis), Cis-N-(3-Chloro-4-fluorophenyl)-5-(4-fluorophenyl)-2-methyl-1,2,6-thiadiazinane-3-carboxamide 1,1-dioxide], the EC50 was less than 1000 nM. With `CN1[C@H](C(=O)Nc2ccc(F)c(Cl)c2)C[C@H](c2ncc(-c3cn[nH]c3)s2)NS1(=O)=O` [HBV-CSU-254-ISO-I, Cis-5-(5-(1H-pyrazol-4-yl)thiazol-2-yl)-N-(3-chloro-4-fluorophenyl)-2-methyl-1,2,6-thiadiazinane-3-carboxamide 1,1-dioxide], the EC50 is less than 1000 nM. For `CN1[C@@H](C(=O)Nc2ccc(F)c(Cl)c2)C[C@@H](c2cc(-c3ccc(C(F)(F)F)nc3)cs2)NS1(=O)=O` [HBV-CSU-166-ISO-II, Cis-N-(3-chloro-4-fluorophenyl)-2-methyl-5-(4-(6-(trifluoromethyl)pyridin-3-yl)thiophen-2-yl)-1,2,6-thiadiazinane-3-carboxamide 1,1-dioxide], the EC50 was greater than 5000 nM. `CN1[C@H](C(=O)Nc2ccc(F)c(Cl)c2)C[C@H](c2cc(-c3ncnn3C)cs2)NS1(=O)=O` [HBV-CSU-327-ISO-I, Cis-N-(3-Chloro-4-fluorophenyl)-2-methyl-5-(4-(1-methyl-1H-1,2,4-triazol-5-yl)thiophen-2-yl)-1,2,6-thiadiazinane-3-carboxamide 1,1-dioxide]: the EC50 is less than 1000 nM. As to `CN1[C@@H](C(=O)Nc2ccc(F)c(Cl)c2)C[C@@H](c2cc(-c3ncn(C)n3)cs2)NS1(=O)=O` [HBV-CSU-326-ISO-II, Cis-N-(3-chloro-4-fluorophenyl)-2-methyl-5-(4-(1-methyl-1H-1,2,4-triazol-3-yl)thiophen-2-yl)-1,2,6-thiadiazinane-3-carboxamide 1,1-dioxide], the EC50 was greater than 5000 nM. `CN1[C@H](C(=O)Nc2ccc(F)c(Cl)c2)C[C@H](c2ccc(-c3cccnc3)s2)NS1(=O)=O` [HBV-CSU-159-ISO-II, Cis-N-(3-chloro-4-fluorophenyl)-2-methyl-5-(5-(pyridin-3-yl)thiophen-2-yl)-1,2,6-thiadiazinane-3-carboxamide 1,1-dioxide]: the EC50 was less than 1000 nM.

As for `CN1C(C(=O)Nc2ccc(F)c(Cl)c2)CC(c2ncc(-c3cncs3)s2)NS1(=O)=O` (racemic) [HBV-CSU-278, Cis-5-([5,5′-Bithiazol]-2-yl)-N-(3-chloro-4-fluorophenyl)-2-methyl-1,2,6-thiadiazinane-3-carboxamide 1,1-dioxide], the EC50 was less than 1000 nM.

As for `CN1[C@H](C(=O)Nc2ccc(F)c(Cl)c2)C[C@H](c2ccon2)NS1(=O)=O` [HBV-CSU-055-ISO-I, Cis-N-(3-chloro-4-fluorophenyl)-5-(isoxazol-3-yl)-2-methyl-1,2,6-thiadiazinane-3-carboxamide 1,1-dioxide], the 50% effective concentration (EC50) is less than 1000 nM. Consider `CN1[C@H](C(=O)Nc2ccc(F)c(Cl)c2)C[C@H](c2ccc(-c3ccc(F)cc3)s2)NS1(=O)=O` [HBV-CSU-238-ISO-I], for which the EC50 is less than 1000 nM. Take `CN1C(C(=O)Nc2ccc(F)c(Br)c2)CC(c2cc(Br)cs2)NS1(=O)=O` (racemic) [HBV-CSU-258, Cis-N-(3-Bromo-4-fluorophenyl)-5-(4-bromothiophen-2-yl)-2-methyl-1,2,6-thiadiazinane-3-carboxamide 1,1-dioxide]: the EC50 is less than 1000 nM. Regarding `CN1[C@@H](C(=O)Nc2ccc(F)c(Cl)c2)C[C@@H](c2ccc(-c3cncs3)s2)NS1(=O)=O` [HBV-CSU-268-ISO-II, Cis-N-(3-Chloro-4-fluorophenyl)-2-methyl-5-(5-(thiazol-5-yl)thiophen-2-yl)-1,2,6-thiadiazinane-3-carboxamide 1,1-dioxide], the EC50 was greater than 5000 nM.

For the molecule `O=C(Nc1ccc(F)c(Cl)c1)C1CC(c2nccs2)NS(=O)(=O)N1CCCN1CCCC1` (stereo not drawn) [HBV-CSU-102, Cis-N-(3-Chloro-4-fluorophenyl)-2-(3-(pyrrolidin-1-yl)propyl)-5-(thiazol-2-yl)-1,2,6-thiadiazinane-3-carboxamide 1,1-dioxide], the half-maximal effective concentration (EC50) was greater than 5000 nM. On to `CN1[C@@H](C(=O)Nc2ccc(F)c(Cl)c2)C[C@@H](c2ncc(-c3cncs3)s2)NS1(=O)=O` [HBV-CSU-278-ISO-II, Cis-5-([5,5′-Bithiazol]-2-yl)-N-(3-chloro-4-fluorophenyl)-2-methyl-1,2,6-thiadiazinane-3-carboxamide 1,1-dioxide], for which the EC50 is greater than 5000 nM. Take `CN1[C@H](C(=O)Nc2ccc(F)c(Cl)c2)C[C@H](c2ccc(Cl)cc2)NS1(=O)=O` [HBV-CSU-265-ISO-I]: the EC50 is less than 1000 nM. In the case of `COC(C)(C)CCN1[C@H](C(=O)Nc2ccc(F)c(Cl)c2)C[C@H](c2nccs2)NS1(=O)=O` [HBV-CSU-083-ISO-II, Cis-N-(3-Chloro-4-fluorophenyl)-2-(3-methoxy-3-methylbutyl)-5-(thiazol-2-yl)-1,2,6-thiadiazinane-3-carboxamide 1,1-dioxide], the EC50 is greater than 5000 nM. With `CN1C(C(=O)Nc2ccc(F)c(Cl)c2)CC(c2cc(-c3ccn(C)n3)cs2)NS1(=O)=O` (racemic) [HBV-CSU-288, Cis-N-(3-Chloro-4-fluorophenyl)-2-methyl-5-(4-(1-methyl-1H-pyrazol-3-yl)thiophen-2-yl)-1,2,6-thiadiazinane-3-carboxamide 1,1-dioxide], the EC50 was less than 1000 nM. On to `CCN1C(C(=O)Nc2ccc(F)c(Cl)c2)CC(c2cccs2)NS1(=O)=O` (racemic) [HBV-CSU-024, Cis-N-(3-chloro-4-fluorophenyl)-2-ethyl-5-(thiophen-2-yl)-1,2,6-thiadiazinane-3-carboxamide 1,1-dioxide], for which the EC50 is less than 1000 nM. The result for `CN1C(C(=O)Nc2ccc(F)c(Cl)c2)CC(c2cc(-c3ccc(NS(C)(=O)=O)cc3)cs2)NS1(=O)=O` (stereo not drawn) [HBV-CSU-171, Cis-N-(3-chloro-4-fluorophenyl)-2-methyl-5-(4-(4-(methylsulfonamido)phenyl)thiophen-2-yl)-1,2,6-thiadiazinane-3-carboxamide 1,1-dioxide] reads less than 1000 nM; that for `CN1C(C(=O)Nc2ccc(F)c(Cl)c2)CC(c2ccc(-c3cncs3)s2)NS1(=O)=O` (racemic) [HBV-CSU-268, Cis-N-(3-Chloro-4-fluorophenyl)-2-methyl-5-(5-(thiazol-5-yl)thiophen-2-yl)-1,2,6-thiadiazinane-3-carboxamide 1,1-dioxide], less than 1000 nM; that for `CN1C(C(=O)Nc2cccc(Cl)c2)CC(c2cccs2)NS1(=O)=O` (racemic) [HBV-CSU-010, Cis-N-(3-chlorophenyl)-2-methyl-5-(thiophen-2-yl)-1,2,6-thiadiazinane-3-carboxamide 1,1-dioxide], less than 1000 nM. On to `CN1[C@H](C(=O)Nc2ccc(F)c(Cl)c2)C[C@H](c2ccc(-c3cnn(CCO)c3)s2)NS1(=O)=O` [HBV-CSU-293-ISO-I, Cis-N-(3-chloro-4-fluorophenyl)-5-(5-(1-(2-hydroxyethyl)-1H-pyrazol-4-yl)thiophen-2-yl)-2-methyl-1,2,6-thiadiazinane-3-carboxamide 1,1-dioxide], for which the EC50 is less than 1000 nM. For the molecule `CN1[C@H](C(=O)Nc2ccc(F)c(Cl)c2)C[C@H](c2ccc(-c3cncn3C)s2)NS1(=O)=O` [HBV-CSU-267-ISO-I, Cis-N-(3-Chloro-4-fluorophenyl)-2-methyl-5-(5-(1-methyl-1H-imidazol-5-yl)thiophen-2-yl)-1,2,6-thiadiazinane-3-carboxamide 1,1-dioxide], the EC50 is less than 1000 nM.

Source of the values: patent US11078170B2 (Assembly Biosciences, Inc., priority 2017, dated 2021).
